Experimental data from US20170319572A1, “COMBINATION DRUG TREATMENT FOR HEPATITIS C INFECTION” (JANSSEN PHARMACEUTICALS, INC., priority 2015, published 2017).
“Also recorded” adds a separate entry of the source.

Legend:
[1] = Drug-drug interaction study in humans (Phase-1, open-label, two-group, fixed-sequence, PK); conditions: for increase of exposure caused by Odalasvir: co-administration of Odalasvir; for increase of exposure caused by SMV: co-administration of SMV
Method: A drug-drug interaction study (DDI) study is a study designed to investigate whether a drug alters the pharmacokinetics of another drug or drugs or their metabolites.
Compound (III)—Subjects received 800 mg of Compound (III) once daily from Days 1-3, Days 11-13, and Days 21-23. PK blood samples for determination of Compound (III) and metabolite concentrations were collected in reference to the Day 3, Day 13, and Day 23 doses.
Simeprevir—Subjects received 150 mg of Simeprevir (SMV) once daily from Days 4-23. PK blood samples for determination of SMV concentrations were collected in reference to the Day 10, Day 13, Day 20, and Day 23 doses.
Odalasvir—Subjects received a loading dose of 150 mg on Day 14, and 50 mg of Odalasvir once daily from Days 15-23. PK blood samples for determination of Odalasvir concentrations were collected in reference to the Day 20 and Day 23 doses.
Compound (III)—Subjects received 800 mg of Compound (III) once daily from Days 1-3, Days 11-13 and Days 21-23. PK blood samples for determination of Compound (III) and metabolite concentrations were collected in reference to the Day 3, Day 13, and Day 23 doses.
Simeprevir—Subjects receive 150 mg of SMV once daily from Days 4-23. PK blood samples for determination of SMV concentrations were collected in reference to the Day 20 and Day 23 doses.
Odalasvir—Subjects receive a loading dose of 150 mg on Day 4, and 50 mg of Odalasvir once daily from Days 5-23. PK blood samples for determination of Odalasvir concentrations were collected in reference to the Day 10, Day 13, Day 20, and Day 23 doses.
This drug-drug interaction study was intended to assess the safety and tolerability of the described drug combinations at pre-defined time points throughout the study. Study completion/follow-up visit(s) were performed 7 and 28 days after completion of the last study assessment.
A primary objective was to evaluate the effect of multiple oral doses of Odalasvir (alone), Simeprevir (alone), and Odalasvir and Simeprevir on the multiple oral dose PK of Compound (III) (and certain metabolites thereof, such as the major metabolites in systemic circulation) in healthy volunteers. Other objectives were to evaluate the safety and tolerability of multiple oral doses of Compound (III) when administered alone and in combination with single and multiple oral doses of Odalasvir and/or Simeprevir in healthy volunteers; to determine the potential effect of Compound of Compound (III) and/or Odalasvir on the steady-state PK of Simeprevir in healthy volunteers; to determine the potential effect of Compound of Compound (III) and/or Simeprevir on the steady state PK of Odalasvir in healthy volunteers.
Various other PK parameters were estimated including: Clast, t1/2, Tmax, Tlast, CL/F, Vz/F, and λz.
The following daily doses were employed:
Odalasvir: 150 mg loading dose; 50 mg for the remainder of the study period.

[2] = Phase 2a open-label combination study, pharmacokinetics and safety; assay type: in vivo, human; conditions: for change of exposure on reducing SMV dosing from 100 mg to 75 mg QD: in vivo
Method: A randomized, Phase 2a, open-label study was carried out to evaluate the safety, pharmacokinetics and efficacy of the combination of Compound (III), Odalasvir and Simeprevir in Genotype 1 treatment-naïve subjects with chronic hepatitis C. Other treatment-naïve subjects included Genotype 2, 3, 4, 5 and 6. The aim of the study was to determine the efficacy, pharmacokinetics (PK), and safety of Compound (III)+Odalasvir±SMV in HCV-infected subjects. […] Efficacy, PK and safety evaluations were conducted during and through 24 weeks post dosing. Up to 15 cohorts were enrolled; data was generated from cohorts that have completed dosing.

[3] = SMV co-administered with Digoxin (a pgp-substrate); cited from earlier work
[4] = SMV co-administered with Rosuvastatin (substrate of OATPs & BCRP); cited from earlier work
[5] = biological target: Pgp (Homo sapiens, UniProt P08183); conditions: cited from earlier work
[6] = system: NTCP; conditions: printed: other OATPs NTCP; read-out: NTCP inhibition IC50; cited from earlier work
[7] = system: CYP (any CYP); test: CYP inhibition; conditions: on any CYP

Chain of Pgp (P08183 whole entry): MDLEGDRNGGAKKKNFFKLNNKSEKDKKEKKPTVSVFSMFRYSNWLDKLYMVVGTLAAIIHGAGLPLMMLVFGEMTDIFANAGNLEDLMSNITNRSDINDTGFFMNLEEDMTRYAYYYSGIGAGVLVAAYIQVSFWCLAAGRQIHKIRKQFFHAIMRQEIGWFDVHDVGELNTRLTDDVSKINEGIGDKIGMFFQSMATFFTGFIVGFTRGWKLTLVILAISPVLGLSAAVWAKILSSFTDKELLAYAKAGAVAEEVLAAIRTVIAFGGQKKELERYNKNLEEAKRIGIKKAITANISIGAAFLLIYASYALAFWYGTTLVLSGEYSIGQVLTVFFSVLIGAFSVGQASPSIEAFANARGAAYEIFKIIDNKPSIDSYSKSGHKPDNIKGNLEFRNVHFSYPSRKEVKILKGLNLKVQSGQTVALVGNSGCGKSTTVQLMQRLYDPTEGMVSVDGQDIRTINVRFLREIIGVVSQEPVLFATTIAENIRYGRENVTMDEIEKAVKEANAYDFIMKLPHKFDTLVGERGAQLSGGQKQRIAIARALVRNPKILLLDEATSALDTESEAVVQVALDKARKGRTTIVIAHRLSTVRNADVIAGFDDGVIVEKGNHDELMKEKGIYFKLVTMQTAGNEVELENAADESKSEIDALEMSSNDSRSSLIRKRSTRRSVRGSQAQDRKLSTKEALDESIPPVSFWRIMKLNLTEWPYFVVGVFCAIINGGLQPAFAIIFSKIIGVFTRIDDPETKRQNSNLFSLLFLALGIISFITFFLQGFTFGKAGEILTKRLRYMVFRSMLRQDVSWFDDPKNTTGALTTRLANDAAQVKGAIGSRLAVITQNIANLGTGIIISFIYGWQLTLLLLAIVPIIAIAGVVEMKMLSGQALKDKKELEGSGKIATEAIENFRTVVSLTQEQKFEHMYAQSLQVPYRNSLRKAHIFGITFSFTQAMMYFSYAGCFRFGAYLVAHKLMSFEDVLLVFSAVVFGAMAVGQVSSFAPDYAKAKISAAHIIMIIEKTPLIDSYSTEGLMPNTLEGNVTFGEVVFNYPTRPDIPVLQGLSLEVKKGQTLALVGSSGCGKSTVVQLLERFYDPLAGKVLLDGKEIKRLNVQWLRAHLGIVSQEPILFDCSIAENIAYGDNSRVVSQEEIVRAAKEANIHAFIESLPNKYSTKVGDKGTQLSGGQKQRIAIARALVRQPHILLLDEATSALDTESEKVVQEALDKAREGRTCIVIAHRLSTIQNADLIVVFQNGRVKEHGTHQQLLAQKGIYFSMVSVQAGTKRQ

increase of exposure caused by Odalasvir ([1]; DDI study) [×] | increase of exposure caused by SMV ([1]; DDI study) | increase of exposure, effect of the three Compounds ([1]; DDI study, Compound (III) + SMV + Odalasvir together) [×] | increase of exposure in the combination ([1]; human in vivo study (Example 1), three drugs combined) [times] | increase of bioavailability by ODV ([1]; human subjects) [fold] | CYP inhibition potential [7] | SMILES | effect of Compound (III) on exposure/bioavailability ([1]; DDI study, co-administration of Compound (III)) | observed exposure in Cohort 1 / group (i) ([2]; Compound (III) 400 mg, ODV 50 mg QD, SMV 100 mg QD) | change of exposure on reducing SMV dosing from 100 mg to 75 mg QD [2] | change of exposure on reducing SMV dosing from 100 mg to 75 mg QD ([2]; listed as Simeprevir) | increase in exposure of Digoxin [3] [%] | increase in Rosuvastatin exposure [4] [fold] | in vitro inhibition of Pgp [5] | IC50 [6] [µM] | change of exposure on increasing Compound (III) dose from 400 to 800 mg ([2]; HCV patients)
2.6 | 1.6 × |  |  |  |  | C[C@H](NP(=O)(O)OC[C@@]1(F)O[C@@H](n2ccc(=O)[nH]c2=O)[C@](C)(O)[C@@H]1O)C(=O)O [Compound A-3] |  |  |  |  |  |  |  |  | 
1.6 |  | 1.6 | 1.6 | 1.6 | limited | COc1ccc2c(O[C@@H]3C[C@H]4C(=O)N[C@]5(C(=O)NS(=O)(=O)C6CC6)C[C@H]5/C=C\CCCCN(C)C(=O)[C@@H]4C3)cc(-c3nc(C(C)C)cs3)nc2c1C [SMV, Simeprevir, reference compound] | no apparent effect; also recorded: does not alter the bioavailability | higher than anticipated | decreased SMV exposure less than proportionally | decreased Simeprevir exposure less than proportionally | 35 | 3 | strong/moderate in vitro inhibition | 2.2 | 
1.5 | no apparent effect |  |  |  |  | C[C@]1(O)[C@H](n2ccc(=O)[nH]c2=O)O[C@](F)(CO)[C@H]1O [Compound A-1] |  |  |  |  |  |  |  |  | less than proportionally
